Where “and” joins values, the source holds several entries; their conditions need not be identical. Equal entries are not always repeated. Where two headings read alike, the source gives them in different places.
Tests used:
VEEV TC-83 = experiment: microbe, parasite or virus in culture; assay type: cell-based; settings: Venezuelan equine encephalitis virus, Vero 76, read-out: Assay provided VEEV CPE inhibition
VEEV = settings: read-out: Reported VEEV CPE inhibition; cited from earlier work
CYP450 (2C9, 2C19) = settings: noted liability, Table 2, cited from earlier work
[1] = Chemical stability of ML336 with or without dithiothreitol (DTT), LCMS; settings: for Averaged Percent ML336 Remaining after 8 h / Percent ML336 Remaining after 8 h: 10 μM in PBS pH 7.4 (1% DMSO), room temperature; for Percent ML336 Remaining after 8 h: single runs
[2] = ML336 without nucleophile (control)

With `O=C(O)Cc1ccccc1Nc1c(Cl)cccc1Cl` [diclofenac sodium] the IC50 (VEEV TC-83) was > 50 µM.

For `COc1cc(NC(=O)Nc2cccc(CNC(=O)O[C@H]3CCOC3)c2)ccc1-c1cnco1` [VX-497], the IC50 (VEEV) is given as 19.2 µM.

In the case of `Cc1cc(Cc2cc(C)cc(C(C)(C)C)c2O)c(O)c(Cc2cc(C)cc(C(C)(C)C)c2O)c1` [antioxidant 80], the IC50 (VEEV TC-83) is listed as > 50 µM, the “CYP450 (2C9, 2C19) inhibition” value (CYP450 (2C9, 2C19)) is listed as ~3 µM and the “CYP450 (2C9, 2C19) inhibition” value (CYP450 (2C9, 2C19); listed as Antioxidant 80) is listed as “about 3 μM”.

In the case of `NS(=O)(=O)c1ccc(-n2c(-c3ccccc3)nc3ccc(Br)cc3c2=O)cc1` [quinazolinone], the IC50 (VEEV TC-83) is reported as > 25 µM.

In the case of `CN1CCN(C)/C(=N/c2ccc([N+](=O)[O-])cc2C(=O)Nc2ccccc2)C1` [ML336, (E)-2-((1,4-dimethylpiperazin-2-ylidene)amino)-5-nitro-N-phenylbenzamide], the “adducts detected by LCMS” value ([1]; 50 μM DTT, sampled every hour for eight hours) is reported as “no adducts were detected”, the “Averaged Percent ML336 Remaining after 8 h” value ([1]; ML336 with 5X DTT (50 μM)) is reported as 98.96% and the “Percent ML336 Remaining after 8 h” value ([1]; ML336 with 5X DTT (50 μM)) is reported as 100.36% and 97.55%. For the same compound, the “Averaged Percent ML336 Remaining after 8 h” value [1, 2] was 93.92% and the “Percent ML336 Remaining after 8 h” value [1, 2] was 96.13% and 91.70%.

`NC(=O)c1ncn([C@@H]2O[C@H](CO)[C@@H](O)[C@H]2O)n1` [ribavirin] showed an IC50 (VEEV TC-83) of 126 µM.

— patent US10532999B2 (priority 2012, dated 2020)
